# Data taken from ChEMBL document CHEMBL5137131, “Mechanisms of Biochanin A Alleviating PM2.5 Organic Extracts-Induced EMT of A549 Cells through the PI3K/Akt Pathway” (J Nat Prod, 2022).
# Activity calls are given as the source filed them. The calls are words filed in the database; no cut-off is given here.
# Legend:
# A549 [1] = assay: Cytotoxicity against human A549 cells assessed as reduction in cell viability at 1.5625 to 25 uM incubated for 48 hrs by CCK-8 assay; format: toxicity, cell-based; conditions: a549, 48 h, dose 1.5625-25 µM
# A549 [2] = assay: Cytotoxicity against human A549 cells assessed as reduction in cell viability at 200 uM incubated for 48 hrs by CCK-8 assay relative to control; format: toxicity, cell-based; conditions: a549, 48 h
# A549 [3] = assay: Protection against PM2.5 induced human A549 cells injury assessed as reduction in PM2.5 induced cell proliferation inhibition at 10 to 30 uM measured at 24 hrs by CCK-8 analysis; format: functional, cell-based; conditions: dose 10-30 µM
# A549 [4] = assay: Protection against PM2.5 induced human A549 cells morphological change assessed as reduction in number of mesenchymal morphogenetic cells at 10 to 30 uM measured after 48 hrs by microscopic analysis; format: functional, cell-based; conditions: dose 10-30 µM
# A549 [5] = assay: Inhibition of cell invasion in PM2.5 induced human A549 cells assessed as number of cell perforation at 20 uM measured after 24 hrs by Giemsa staining based transwell assay (reference value: 93 +/- 4.04%); format: functional; design: scale not given: the % may be the effect or the level left
# A549 [6] = assay: Inhibition of cell invasion in PM2.5 induced human A549 cells assessed as number of cell perforation at 10 uM measured after 24 hrs by Giemsa staining based transwell assay (reference value: 93 +/- 4.04%); format: functional; design: scale not given: the % may be the effect or the level left
# A549 [7] = assay: Inhibition of cell migration in PM2.5 induced human A549 at 30 uM incubated for 24 hrs by wound healing assay relative to control; format: functional
# A549 [8] = assay: Inhibition of cell migration in PM2.5 induced human A549 assessed as scratch migration length at 10 uM incubated for 0 hr by wound healing assay (reference value: 2.120 +/- 0.132 micrometer); format: functional
# A549 [9] = assay: Inhibition of cell migration in PM2.5 induced human A549 assessed as scratch migration length at 20 uM incubated for 0 hr by wound healing assay (reference value: 2.120 +/- 0.132 micrometer); format: functional
# A549 [10] = assay: Inhibition of cell migration in PM2.5 induced human A549 assessed as scratch migration length at 30 uM incubated for 0 hr by wound healing assay (reference value: 2.120 +/- 0.132 micrometer); format: functional
# A549 [11] = assay: Inhibition of cell migration in PM2.5 induced human A549 assessed as scratch migration length at 10 uM incubated for 24 hr by wound healing assay (reference value: 1.757 +/- 0.094 micrometer); format: functional
# A549 [12] = assay: Inhibition of cell migration in PM2.5 induced human A549 assessed as scratch migration length at 20 uM incubated for 24 hr by wound healing assay (reference value: 1.757 +/- 0.094 micrometer); format: functional
# A549 [13] = assay: Inhibition of cell migration in PM2.5 induced human A549 assessed as scratch migration length at 30 uM incubated for 24 hr by wound healing assay (reference value: 1.757 +/- 0.094 micrometer); format: functional
# A549 [14] = assay: Inhibition of cell migration in PM2.5 induced human A549 assessed as relative migration length at 10 uM incubated for 24 hr by wound healing assay (reference value: 0.363 micrometer); format: functional
# A549 [15] = assay: Inhibition of cell migration in PM2.5 induced human A549 assessed as relative migration length at 20 uM incubated for 24 hr by wound healing assay (reference value: 0.363 micrometer); format: functional
# A549 [16] = assay: Inhibition of cell migration in PM2.5 induced human A549 assessed as relative migration length at 30 uM incubated for 24 hr by wound healing assay (reference value: 0.363 micrometer); format: functional
# A549 [17] = assay: Inhibition of cell migration in PM2.5 induced human A549 assessed as relative migration rate at 10 uM incubated for 24 hr by wound healing assay (reference value: 129%); format: functional; design: scale not given: the % may be the effect or the level left
# A549 [18] = assay: Inhibition of cell migration in PM2.5 induced human A549 assessed as relative migration rate at 20 uM incubated for 24 hr by wound healing assay (reference value: 129%); format: functional; design: scale not given: the % may be the effect or the level left
# A549 [19] = assay: Inhibition of cell migration in PM2.5 induced human A549 assessed as relative migration rate at 30 uM incubated for 24 hr by wound healing assay (reference value: 129%); format: functional; design: scale not given: the % may be the effect or the level left
# A549 [20] = assay: Inhibition of cell invasion in PM2.5 induced human A549 cells assessed as number of cell perforation at 30 uM measured after 24 hrs by Giemsa staining based transwell assay (reference value: 93 +/- 4.04%); format: functional; design: scale not given: the % may be the effect or the level left
# A549 [21] = assay: Inhibition of cell invasion in PM2.5 induced human A549 cells assessed as reduction in cell invasiveness at 20 uM measured after 24 hrs by Giemsa staining based transwell assay relative to control; format: functional; design: scale not given: the % may be the effect or the level left
# A549 [22] = assay: Inhibition of cell invasion in PM2.5 induced human A549 cells assessed as reduction in cell invasiveness at 30 uM measured after 24 hrs by Giemsa staining based transwell assay relative to control; format: functional; design: scale not given: the % may be the effect or the level left
# A549 [23] = assay: Downregulation of PM2.5 induced CXCL12 expression in human A549 cells at 10 uM by ELISA relative to control; format: functional
# A549 [24] = assay: Downregulation of PM2.5 induced CXCL12 expression in human A549 cells at 20 uM by ELISA relative to control; format: functional
# A549 [25] = assay: Inhibition of PM2.5 induced TGF-beta1 secretion in human A549 cells at 10 uM by ELISA relative to control; format: functional
# A549 [26] = assay: Inhibition of PM2.5 induced TGF-beta1 secretion in human A549 cells at 20 uM by ELISA relative to control; format: functional
# A549 [27] = assay: Inhibition of PM2.5 induced TGF-beta1 secretion in human A549 cells at 30 uM by ELISA relative to control; format: functional
# A549 [28] = assay: Upregulation of PM2.5 induced E-cadherin mRNA expression in human A549 cells at 10 uM by qRT-PCR analysis; format: functional, cell-based
# A549 [29] = assay: Upregulation of PM2.5 induced mRNA expression in human A549 cells at 20 uM by qRT-PCR analysis; format: functional, cell-based
# A549 [30] = assay: Reversal of PM2.5 induced EMT in human A549 cells at 10 uM by ELISA; format: functional, cell-based
# A549 [31] = assay: Downregulation of PM2.5 induced N-cadherin mRNA level in human A549 cells at 10 uM by qRT-PCR analysis relative to control; format: functional
# A549 [32] = assay: Downregulation of PM2.5 induced N-cadherin mRNA level in human A549 cells at 20 uM by qRT-PCR analysis relative to control; format: functional
# A549 [33] = assay: Downregulation of PM2.5 induced vimentin mRNA expression in human A549 cells at 10 uM by qRT-PCR analysis relative to control; format: functional
# A549 [34] = assay: Downregulation of PM2.5 induced vimentin mRNA expression in human A549 cells at 20 uM by qRT-PCR analysis relative to control; format: functional
# A549 [35] = assay: Downregulation of PM2.5 induced vimentin mRNA expression in human A549 cells at 30 uM by qRT-PCR analysis relative to control; format: functional
# A549 [36] = assay: Downregulation of PM2.5 induced fibronectin mRNA level in human A549 cells at 10 uM by qRT-PCR analysis; format: functional, cell-based
# A549 [37] = assay: Downregulation of PM2.5 induced fibronectin mRNA level in human A549 cells at 20 uM by qRT-PCR analysis; format: functional, cell-based
# A549 [38] = assay: Downregulation of PM2.5 induced fibronectin mRNA level in human A549 cells at 30 uM by qRT-PCR analysis; format: functional, cell-based
# A549 [39] = assay: Upregulation of PM2.5 induced E-cadherin expression in human A549 cells at 30 uM by Western blot analysis; format: functional, cell-based
# A549 [40] = assay: Downregulation of PM2.5 induced vimentin expression in human A549 cells at 10 to 30 uM by Western blot analysis relative to control; format: functional; conditions: dose 10-30 µM
# A549 [41] = assay: Downregulation of PM2.5 induced MMP-2 activation in human A549 cells at 10 uM by ELISA; format: functional, cell-based
# A549 [42] = assay: Downregulation of PM2.5 induced MMP-9 activation in human A549 cells at 10 uM by ELISA; format: functional, cell-based
# A549 [43] = assay: Inhibition of PM2.5 induced PI3K upregulation in human A549 cells at 20 uM by Western blot analysis relative to control; format: functional
# A549 [44] = assay: Inhibition of PM2.5 induced PI3K upregulation in human A549 cells at 30 uM by Western blot analysis relative to control; format: functional
# [45] = target: T1, Serine/threonine-protein kinase AKT (Homo sapiens) (UniProt P31751+Q9Y243+P31749); assay: Inhibition of PM2.5 induced Akt phosphorylation upregulation in human A549 cells at 10 uM by Western blot analysis relative to control; format: cell-based
# [46] = target: T1, Serine/threonine-protein kinase AKT (Homo sapiens); assay: Inhibition of PM2.5 induced Akt phosphorylation upregulation in human A549 cells at 20 uM by Western blot analysis relative to control; format: cell-based
# [47] = target: T1, Serine/threonine-protein kinase AKT (Homo sapiens); assay: Inhibition of PM2.5 induced Akt phosphorylation upregulation in human A549 cells at 30 uM by Western blot analysis relative to control; format: cell-based
# A549 [48] = assay: Inhibition of PM2.5 induced PI3K expression in human A549 cells at 10 to 30 uM by qRT-PCR analysis; format: functional, cell-based; conditions: dose 10-30 µM
# A549 [49] = assay: Inhibition of PM2.5 induced Akt phosphorylation in human A549 cells at 10 to 30 uM […]; format: functional, cell-based; conditions: dose 10-30 µM
# A549 [50] = assay: Inhibition of PM2.5 induced PI3K/Akt activation assessed as inhibition of Snail expression in human A549 cells at 10 to 20 uM; format: cell-based; conditions: dose 10-20 µM
# A549 [51] = assay: Inhibition of PM2.5 induced PI3K/Akt activation assessed as inhibition of Slug expression in human A549 cells at 10 to 20 uM; format: cell-based; conditions: dose 10-20 µM
# A549 [52] = assay: Inhibition of PM2.5 induced PI3K/Akt activation assessed as inhibition of Twist expression in human A549 cells at 10 to 20 uM; format: cell-based; conditions: dose 10-20 µM
# T1 sequence (P31749 whole entry, looked up): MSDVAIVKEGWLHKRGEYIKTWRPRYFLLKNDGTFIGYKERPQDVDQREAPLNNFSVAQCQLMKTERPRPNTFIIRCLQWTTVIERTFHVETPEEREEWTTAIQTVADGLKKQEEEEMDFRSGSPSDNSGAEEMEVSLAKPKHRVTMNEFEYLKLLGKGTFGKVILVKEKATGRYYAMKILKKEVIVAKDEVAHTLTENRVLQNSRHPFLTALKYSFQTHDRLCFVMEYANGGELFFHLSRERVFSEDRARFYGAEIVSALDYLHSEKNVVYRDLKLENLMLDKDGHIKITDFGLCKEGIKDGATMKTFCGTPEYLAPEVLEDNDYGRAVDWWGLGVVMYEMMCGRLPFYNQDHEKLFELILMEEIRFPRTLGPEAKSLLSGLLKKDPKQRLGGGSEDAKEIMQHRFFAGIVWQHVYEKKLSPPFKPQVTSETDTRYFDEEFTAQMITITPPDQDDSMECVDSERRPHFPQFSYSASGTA
# T1 sequence (P31751 whole entry, looked up): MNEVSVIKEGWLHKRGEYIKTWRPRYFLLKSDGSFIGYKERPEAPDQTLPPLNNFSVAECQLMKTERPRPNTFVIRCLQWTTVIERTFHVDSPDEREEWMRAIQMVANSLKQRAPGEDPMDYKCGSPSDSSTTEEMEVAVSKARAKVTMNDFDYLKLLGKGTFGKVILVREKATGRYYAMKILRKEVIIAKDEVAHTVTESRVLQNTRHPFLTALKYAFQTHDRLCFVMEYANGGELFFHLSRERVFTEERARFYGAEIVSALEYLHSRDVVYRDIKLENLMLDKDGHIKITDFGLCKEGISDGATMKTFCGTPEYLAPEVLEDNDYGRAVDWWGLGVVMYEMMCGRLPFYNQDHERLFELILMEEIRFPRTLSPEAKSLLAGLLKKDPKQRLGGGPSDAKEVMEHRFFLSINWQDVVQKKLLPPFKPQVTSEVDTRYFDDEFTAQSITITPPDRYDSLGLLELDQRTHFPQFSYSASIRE
# T1 sequence (Q9Y243 whole entry, looked up): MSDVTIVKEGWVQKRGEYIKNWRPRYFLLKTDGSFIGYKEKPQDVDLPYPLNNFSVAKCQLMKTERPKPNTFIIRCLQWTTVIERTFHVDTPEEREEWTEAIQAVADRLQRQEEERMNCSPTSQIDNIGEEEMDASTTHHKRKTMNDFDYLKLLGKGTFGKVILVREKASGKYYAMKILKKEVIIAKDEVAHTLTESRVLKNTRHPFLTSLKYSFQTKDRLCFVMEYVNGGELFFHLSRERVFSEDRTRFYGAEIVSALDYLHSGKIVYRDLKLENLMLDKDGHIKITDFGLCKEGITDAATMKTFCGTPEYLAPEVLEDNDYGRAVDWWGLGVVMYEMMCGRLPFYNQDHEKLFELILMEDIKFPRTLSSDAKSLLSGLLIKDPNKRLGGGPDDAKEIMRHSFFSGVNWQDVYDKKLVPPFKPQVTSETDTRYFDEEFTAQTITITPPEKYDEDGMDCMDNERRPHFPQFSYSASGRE
smiles,measurement,setting,value
COc1ccc(-c2coc3cc(O)cc(O)c3c2=O)cc1 [BIOCHANIN],Activity,A549 [1],Non-Toxic
same,Activity,A549 [2],19%
same,Activity,A549 [3],Active
same,Activity,A549 [4],Active
same,Activity,A549 [5],61.3%
same,Activity,A549 [6],92%
same,inhibition at 30 µM,A549 [7],22%
same,Activity,A549 [8],1.973 um
same,Activity,A549 [9],1.932 um
same,Activity,A549 [10],1.854 um
same,Activity,A549 [11],1.568 um
same,Activity,A549 [12],1.451 um
same,Activity,A549 [13],1.552 um
same,Activity,A549 [14],0.405 um
same,Activity,A549 [15],0.481 um
same,Activity,A549 [16],0.302 um
same,Activity,A549 [17],144%
same,Activity,A549 [18],171%
same,Activity,A549 [19],107%
same,Activity,A549 [20],52%
same,Activity,A549 [21],34.09%
same,Activity,A549 [22],44.1%
same,Activity,A549 [23],17%
same,Activity,A549 [24],20%
same,inhibition at 10 µM,A549 [25],16.2%
same,inhibition at 20 µM,A549 [26],13.1%
same,inhibition at 30 µM,A549 [27],24.8%
same,Activity,A549 [28],Active
same,Activity,A549 [29],Active
same,Activity,A549 [30],Active
same,Activity,A549 [31],67%
same,Activity,A549 [32],79%
same,Activity,A549 [33],76%
same,Activity,A549 [34],48%
same,Activity,A549 [35],78%
same,Activity,A549 [36],Active
same,Activity,A549 [37],Active
same,Activity,A549 [38],Active
same,Activity,A549 [39],Active
same,Activity,A549 [40],45%
same,Activity,A549 [41],Active
same,Activity,A549 [42],Active
same,inhibition at 20 µM,A549 [43],50%
same,inhibition at 30 µM,A549 [44],63.3%
same,inhibition,[45],30%
same,inhibition,[46],73.6%
same,inhibition,[47],17.1%
same,inhibition,A549 [48],Active
same,inhibition,A549 [49],Active
same,inhibition,A549 [50],Active
same,inhibition,A549 [51],Active
same,inhibition,A549 [52],Active
